The values that follow come from US12421235B2, “Bridged tricyclic carbamoylpyridone compounds and uses thereof” (Gilead Sciences, Inc., priority 2020, dated 2025).

The subject of data set [1] is HIV-1 (IIIB) in MT-4 cells. Briefly: HIV MT-4 antiviral assay. It is filed as cell-based. To be noted: Human immunodeficiency virus 1, MT4, 120 h, 5 days, Cell Titer Glo. On the procedure:
Example 47: HIV MT-4 Antiviral and Cytotoxicity Assay
Antiviral Assay in MT-4 Cells
(§1) Compounds were tested in a high-throughput 384-well assay format for their ability to inhibit the replication of HIV-1 (IIIB) in MT-4 cells. Compounds were serially diluted (1:3) in DMSO on 384-well polypropylene plates and further diluted 200-fold into complete RPMI media (10% FBS, 1% P/S) using the Biotek Micro Flow and Labcyte ECHO acoustic dispenser. Each plate contained up to 8 test compounds, with negative (No Drug Control) and 5 μM AZT positive controls. MT-4 cells were pre-infected with 10 μL of either RPMI (mock-infected) or a fresh 1:250 dilution of HIV-1 IIIB concentrated virus stock. Infected and uninfected MT-4 cells were further diluted in complete RPMI media and added to each plate using a Micro Flow dispenser. After 5 days incubation in a humidified and temperature controlled incubator (37° C.), Cell Titer Glo (Promega) was added to the assay plates and chemiluminescence read using an Envision plate-reader. EC50 values were defined as the compound concentration that causes a 50% decrease in luminescence signal, and were calculated using a sigmoidal dose-response model to generate curve fits.
(Cellular ATP, detected with luciferase, serves as a proxy for viable cell number.)

A short description of data set [2]: Cytotoxicity assay in MT-4 cells. To be noted: human, uninfected MT-4 cells, Cell Titer Glo. The data set is classed as cell-based. How it is done:
as §1, with “fits. Cytotoxicity Assay in MT-4 Cells Assays were performed as above except uninfected MT-4 cells were added to each well containing test compound. In addition, 10 μM puromycin was added to the last column of each assay plate to assess a base level of cytotoxicity.” for “fits.”

Data set [3] concerns pLai RLuc reporter virus in MT-4 cells. In words: HIV MT-4 serum shift antiviral reporter assay. The data set is classed as cell-based. To be noted: Human immunodeficiency virus 1, MT4, 72 h, read-out: RLUC CCM. How it is done: Example 48: HIV MT-4 Serum Shift Antiviral Reporter Assay
To quantify the amount of protein binding to human serum, compounds were serially diluted (1:3) in DMSO and acoustically transferred onto 384-well assay plates via a Labcyte ECHO robot. Each plate contained up to 8 test compounds, including negative and positive controls, (DMSO, 5 μM AZT respectively). Assay plates were prepared in duplicate, and tested in either CCM (cell culture media) or HS/CCM (human serum/cell culture media). MT-4 cells were first pre-infected with pLai RLuc reporter virus for 2 h at 37° C., then further diluted in either CCM (RPMI media, 10% FBS, 1% P/S) or HS/CCM (RPMI media, 10% FBS, 50% HS, 1% P/S), and subsequently added to each plate using a Biotek Micro Flow dispenser. After a 72-h incubation in a humidified and temperature controlled incubator (37° C.), Renilla Glo (Promega) was added to all assay plates and chemiluminescence read using an Envision plate-reader. EC50 values were defined as the compound concentration that causes a 50% decrease in luminescence signal, and were calculated using a sigmoidal dose-response model to generate curve fits. To determine the amount of protein binding, EC50 fold shifts (or EC50 shifts) were calculated by dividing EC50 (HS/CCM)/EC50 (CCM). […]

Data set [4] in a line: High throughput microsomal stability assay (human liver microsomes). It is filed as in vitro ADME. To be noted: for HLM stability: human liver microsomes, 1 uM compound, NADPH + UDPGA cofactors, 37 C. On the procedure: Example 49: High Throughput Microsomal Stability Assay
Metabolic stability of compounds was assessed using Human, or Rat Liver Microsomal assays (Corning). In this assay, 10 nL compounds at concentration of 1 mM in 100% DMSO were dispensed into 384-well polypropylene plates using the Echo 550 acoustic liquid dispenser (Labcyte®). Each plate contained 384 wells with a single test compound in each well.
A solution of human (Corning® Gentest™ Human Mixed Pooled Microsomes), or rat (Corning® Gentest™ Rat [Sprague-Dawley] Pooled Liver Microsomes) liver microsomes at 2 mg/ml in 100 mM K2HPO4/KH2PO4 pH 7.4 with Alamethicin from Trichoderma viride (Sigma-Aldrich) 0.0225 mg/ml were incubated on ice for 15 minutes. 5 uL of this solution was added to individual wells following 15 minute incubation at room temperature; and supplemented with 5 uL NADPH Regenerating Solution of cofactors (Corning® Gentest™ UGT Reaction Mix) containing 100 mM K2HPO4/KH2PO4 pH 7.4, 2.6 mM NADP+, 6.6 mM glucose-6-phosphate, 6.6 mM MgCl2, 0.8 U/mL glucose-6-phosphate dehydrogenase, 0.1 mM Sodium Citrate, 6.8 mM uridine diphosphate-glucuronic acid. Final concentration of analyte compounds at the beginning of the reaction was 1 uM. The reactions were incubated at 37° C. and time points of 0, 5, 15, 30, 40, 50, 60, and 70 minutes were collected for further analysis. Background data were collected using reactions without analyte compounds.
Upon collection of the reaction time points, samples were quenched with 30 uL of a solution of 72% acetonitrile, 8% methanol, 0.1% formic acid, 19.9% water, and internal standard (IS). Reaction plates were span in a centrifuge at speed of 4,000 rcf for 30 minutes and 4° C., following a dilution of the 10 uL quenched reaction into 40 uL de-ionized water, yielding assay plates.
Assay plates were analyzed using solid-state extraction coupled with quadrupole time-of-flight mass spectrometer, using Agilent QToF 6530 RapidFire 360 system, with C4 type A solid state cartridges. Analysis was performed in either positive or negative ionization modes. Mobile phases contained 0.1% formic acid in water for loading analytes onto solid state extraction cartridges, and 0.1% formic acid in acetonitrile for elution into mass spectrometer in positive ionization mode, or 0.1% acetic acid in water for loading and 0.1% acetic acid in acetonitrile for extraction in negative ionization mode. Peak-area ratios of integrated counts for individual compounds to IS were plotted as semi-logarithmic chart of log vs time. Initial, linear portion of decay was fitted to a linear regression equation to derive half time of a compound decay.
Pharmacological parameters for an analyte compound metabolism were calculated using the following equations: […]
Where. Calculation of In Vitro Intrinsic Clearance
Concentration refers to the protein concentration (mg/mL) in the reaction.
Calculation of In Vivo Intrinsic Clearance
This scales the in vitro intrinsic clearance up to the value that would be predicted for the entire mass of liver tissue (but with no restriction by blood flow). The value depends upon the size of the liver (species-dependent) and the yield of microsomal protein as appropriate (assumed to be species-independent).
Calculation of Predicted Clearance
Hepatic clearance will depend upon the inter-relationship of intrinsic clearance and hepatic blood flow and can be predicted from in vitro data using a variety of approaches.
Calculation of Hepatic Extraction
This is simply the predicted clearance expressed as a proportion of hepatic blood flow. E=CL/QH*100%
Intrinsic clearance of the instant compounds, as well as for reference compounds A-F, were calculated following the procedure above.

For orientation: CC50 means the concentration giving 50% cytotoxicity. Low readings indicate harm at low concentration, high ones better tolerance by the cells.

As to `C[C@H]1CC[C@](C)(O)[C@H]2CN1C(=O)c1c(O)c(=O)c(C(=O)NCc3ccc(F)cc3F)cn12` (single isomer, unassigned) [Example 12], the EC50 in data set [1] came to 1.4 nM; in data set [3] it was 0.61 nM. Half-maximal cytotoxicity in data set [2] (CC50 at 5 days) was put at 41300 nM. The HLM stability in data set [4] was found to be 2.5 mL/min/kg. Moreover, the “MS Cl improvement” value in data set [4] (relative to compound F) was 3.3 times relative to compound F.
In data set [1], `CO[C@@]1(C)C=C[C@H](C)N2C[C@H]1n1cc(C(=O)NCc3c(F)cc(F)cc3F)c(=O)c(O)c1C2=O` (single isomer, unassigned) [Example 24] returned an EC50 of 2.2 nM. In addition, it took 11100 nM to reach half-maximal cytotoxicity in data set [2] (CC50 at 5 days). Also, in data set [4], the HLM stability is 11.5 mL/min/kg.
`C[C@H]1CC[C@@](C)(O)[C@H]2CN1C(=O)c1c(O)c(=O)c(C(=O)NCc3c(F)cc(F)cc3F)cn12` (single isomer, unassigned) [Example 32]: the EC50 in data set [1] worked out at 1.9 nM; in data set [3], 0.43 nM. This compound also yielded a CC50 at 5 days in data set [2] of 34600 nM. Also, in data set [4], the HLM stability came out at 9 mL/min/kg.
Consider `C[C@@H]1CC[C@](C)(O)[C@H]2CN1C(=O)c1c(O)c(=O)c(C(=O)NCc3ccc(F)cc3F)cn12` (single isomer, unassigned) [Example 35], for which the EC50 in data set [1] was 3.2 nM; in data set [3], 1.45 nM. The same compound registered a CC50 at 5 days in data set [2] of 11700 nM. Moreover, in data set [4], the HLM stability stood at 10.3 mL/min/kg.
For `CO[C@@H]1CC(F)(F)[C@H](C)N2C[C@H]1n1cc(C(=O)NCc3c(F)cc(F)cc3F)c(=O)c(O)c1C2=O` (single isomer, unassigned) [Example 36], in that order: 2.6 nM, 0.33 nM, 27300 nM and 3.3 mL/min/kg.
`CO[C@@H]1C[C@@H](F)[C@H](C)N2C[C@H]1n1cc(C(=O)NCc3c(F)cc(F)cc3F)c(=O)c(O)c1C2=O` (single isomer, unassigned) [Example 38]: the EC50 in data set [1] is 1.8 nM; in data set [3] it was 0.34 nM. The same compound yielded a CC50 at 5 days in data set [2] of 25500 nM. The HLM stability in data set [4] is 3.17 mL/min/kg.
On to `CO[C@H]1CC[C@H](C)N2C[C@H]1n1cc(C(=O)NCc3c(F)cc(F)cc3F)c(=O)c(O)c1C2=O` [Example 1, (3S,6S,7R)-12-hydroxy-6-methoxy-3-methyl-1,11-dioxo-N-(2,4,6-trifluorobenzyl)-1,4,5,6,7,11-hexahydro-3H-2,7-methanopyrido[1,2-a][1,4]diazonine-10-carboxamide], for which the EC50 in data set [1] is 1.5 nM; in data set [3], 0.55 nM. In addition, the CC50 at 5 days in data set [2] was 34800 nM. Besides, in data set [4], the HLM stability was determined as 3.5 mL/min/kg. Also, the “MS Cl improvement” value in data set [4] (relative to compound A) is 3.2 times relative to compound A.
In data set [1], `C[C@H]1C=C[C@H](O)[C@H]2CN1C(=O)c1c(O)c(=O)c(C(=O)NCc3c(F)cc(F)cc3F)cn12` [Example 14, (3S,6S,7R)-6,12-dihydroxy-3-methyl-1,11-dioxo-N-(2,4,6-trifluorobenzyl)-1,6,7,11-tetrahydro-3H-2,7-methanopyrido[1,2-a][1,4]diazonine-10-carboxamide] showed an EC50 of 4.2 nM. Also, the CC50 at 5 days in data set [2] stood at 50000 nM. Moreover, in data set [4], the HLM stability was determined as 2.67 mL/min/kg.
The compound `C[C@H]1C=C[C@H](O)[C@H]2CN1C(=O)c1c(O)c(=O)c(C(=O)NCc3ccc(F)cc3F)cn12` [Example 20, (3S,6S,7R)—N-(2,4-difluorobenzyl)-6,12-dihydroxy-3-methyl-1,11-dioxo-1,6,7,11-tetrahydro-3H-2,7-methanopyrido[1,2-a][1,4]diazonine-10-carboxamide] yielded an EC50 in data set [1] of 2.8 nM. Further, in data set [2], the CC50 at 5 days was 30000 nM. In addition, the HLM stability in data set [4] amounted to 1.83 mL/min/kg.
Take `C[C@H]1C=C[C@H](OC(F)F)[C@H]2CN1C(=O)c1c(O)c(=O)c(C(=O)NCc3c(F)cc(F)cc3F)cn12` [Example 22, (3S,6S,7R)-6-(difluoromethoxy)-12-hydroxy-3-methyl-1,11-dioxo-N-(2,4,6-trifluorobenzyl)-1,6,7,11-tetrahydro-3H-2,7-methanopyrido[1,2-a][1,4]diazonine-10-carboxamide]: the EC50 in data set [1] was found to be 1.7 nM. This compound also returned a CC50 at 5 days in data set [2] of 8910 nM. In addition, the HLM stability in data set [4] came to 14 mL/min/kg.
`[2H]C([2H])([2H])[C@]1(O)C=C[C@H](C)N2C[C@H]1n1cc(C(=O)NCc3ccc(F)cc3F)c(=O)c(O)c1C2=O` [Example 30, (1R,10S,13S)—N-[(2,4-difluorophenyl)methyl]-6,13-dihydroxy-10-methyl-5,8-dioxo-13-(trideuteriomethyl)-2,9-diazatricyclo[7.4.1.02,7]tetradeca-3,6,11-triene-4-carboxamide] yielded an EC50 in data set [1] of 2.1 nM. This compound also had a cytotoxic concentration (CC50) at 5 days in data set [2] of 7480 nM. The HLM stability in data set [4] amounted to 1.83 mL/min/kg.
